Reference: the NIST ThermoML archive (doi:10.1021/je500542j)
Where “and” joins values, the source holds several entries; their conditions need not be identical. Equal values may be shown once. Numbers after ± are expanded uncertainties.

Test: wn = mass fraction of the nth substance listed
Conditions: 101 kPa, Liquid, Vibrating tube method

O=C(O)c1ccccc1C(=O)O [1,2-benzenedicarboxylic acid] + CN1CCCC1=O
mass density (303.15 K, w1 = 0.158): 1037.8 ± 1 kg/m3 and 1038 ± 1 kg/m3
mass density (313.15 K, w1 = 0.187): 1042.8 ± 1.1 kg/m3

O=C(O)c1cccc(C(=O)O)c1 [1,3-benzenedicarboxylic acid] + CN1CCCC1=O
mass density (303.15 K, w1 = 0.1624): 1036.1 ± 1 kg/m3
mass density (313.15 K, w1 = 0.1957): 1038.5 ± 7.6 kg/m3

O=C(O)c1ccc(C(=O)O)cc1 [1,4-benzenedicarboxylic acid] + CN1CCCC1=O
mass density (303.15 K, w1 = 0.05896): 1029.5 ± 1 kg/m3
mass density (313.15 K, w1 = 0.08754): 1031.5 ± 1 kg/m3 and 1038.5 ± 1 kg/m3
